Read-outs that look alike come from different tables or passages of the source.
System: Sprague-Dawley rats
Assay: Clinical chemistry
Assay type: in vivo, Rattus norvegicus
Set-up: key to Cholesterol, Dose response / Triglyserides, Dose response / Glucose, Dose response / Albumin, Dose response / K, Dose response / Total bilirubin, Dose response: D: significant dose response (for results, see Table 2); T: significant trend
Conditions: for CED, Glucose / CED, Potassium / CED-L, Glucose / CED-L, Potassium / CED, Alkaline phosphatase / CED, Chlolesterol / CED, Total Bilirubin / CED-L, Alkaline phosphatase / CED-L, Chlolesterol / CED-L, Total Bilirubin / CED, Albumin / CED-L, Albumin / CED, Total protein / CED, Triglycerides / CED-L, Total protein / CED-L, Triglycerides: adipose tissue concentration based; for Emax: Rattus norvegicus
Experimental: Spectrophotometric methods were used for the determination of serum total calcium, cholesterol, creatinine, glucose, triglycerides and urea. Serum sodium, potassium and chloride concentrations were measured directly by ion selective electrodes. The analyses were performed by a clinical chemistry analyzer (Konelab 30i, ThermoFisher Scientific, Vantaa, Finland). Plasma lactate dehydrogenase (LD) activity was measured according to the recommendations of the International Federation of Clinical Chemistry (IFCC 1994/I) using Konelab 60i clinical chemistry analyzer. Methods and results for liver related parameters (serum alanine aminotransferase [ALT] activity, alkaline phosphatase [ALP] activity, albumin, total protein and total bilirubin are reported separately.
Data were also analyzed using the BMD method, which is based on dose-response modeling of the full data set using a nested family of exponential and Hill models. The analyses were done on data of males and females combined, using sex as a covariate. […] In that case, different Critical Effect Doses (CEDs) and CEDs at the lowest bound of the confidence interval (CED-L) were generated for each sex. If no difference between sexes is detected, a CED and CED-Ls for the combined data is generated. However, this was also done if the curve fits are close, and separate analyses for males and females were then performed manually. CEDs and CED-Ls were calculated at the predefined Critical Effect Size (CES) of 5% (EFSA standard) or 10%.

[1] = females, total dose 0-1700 mg/kg bw
[2] = females, total dose 10 mg/kg bw
[3] = females, total dose 30 mg/kg bw
[4] = females, total dose 100 mg/kg bw
[5] = females, total dose 300 mg/kg bw
[6] = females, total dose 1000 mg/kg bw
[7] = females, total dose 1700 mg/kg bw

For `Clc1cc(Cl)c(-c2cc(Cl)c(Cl)c(Cl)c2Cl)cc1Cl` [PCB 180, 2,2′,3′,4,4′,5,5′-heptachlorobiphenyl], the “CED, Glucose” value (F, CES 5%, model E2) was 4450 µg/g lipid, the “CED, Potassium” value (F, CES 5%, model E2) was 7900 µg/g lipid and the “CED-L, Glucose” value (F, CES 5%, model E2) was 2648 µg/g lipid. The “CED-L, Potassium” value (F, CES 5%, model E2) was 5086 µg/g lipid, the “CED, Alkaline phosphatase” value (F, CES 5%, model E4) was 308 µg/g lipid and the “CED, Chlolesterol” value (F, CES 5%, model E4) was 640 µg/g lipid. The “CED, Total Bilirubin” value (F, CES 5%, model E4) was 19.4 µg/g lipid, the “CED-L, Alkaline phosphatase” value (F, CES 5%, model E4) was 136 µg/g lipid and the “CED-L, Chlolesterol” value (F, CES 5%, model E4) was 387 µg/g lipid. The “CED-L, Total Bilirubin” value (F, CES 5%, model E4) was 3.77 µg/g lipid, the “CED, Glucose” value (F, CES 10%, model E2) was 9140 µg/g lipid and the “CED, Potassium” value (F, CES 10%, model E2) was 16200 µg/g lipid. For the same compound, the “CED-L, Glucose” value (F, CES 10%, model E2) was 5440 µg/g lipid, the “CED-L, Potassium” value (F, CES 10%, model E2) was 10450 µg/g lipid and the “CED, Alkaline phosphatase” value (F, CES 10%, model E4) was 701 µg/g lipid. For the same compound, the “CED, Chlolesterol” value (F, CES 10%, model E4) was 1330 µg/g lipid, the “CED, Total Bilirubin” value (F, CES 10%, model E4) was 48.2 µg/g lipid and the “CED-L, Alkaline phosphatase” value (F, CES 10%, model E4) was 309 µg/g lipid. The “CED-L, Chlolesterol” value (F, CES 10%, model E4) was 813 µg/g lipid, the “CED-L, Total Bilirubin” value (F, CES 10%, model E4) was 8.98 µg/g lipid and the “CED, Albumin” value (M, CES 5%, model E2) was 6750 µg/g lipid. The “CED, Alkaline phosphatase” value (M, CES 5%, model E2) was 2300 µg/g lipid, the “CED, Glucose” value (M, CES 5%, model E2) was 866 µg/g lipid and the “CED-L, Albumin” value (M, CES 5%, model E2) was 4696 µg/g lipid. For the same compound, the “CED-L, Alkaline phosphatase” value (M, CES 5%, model E2) was 1393 µg/g lipid, the “CED-L, Glucose” value (M, CES 5%, model E2) was 632 µg/g lipid and the “CED, Chlolesterol” value (M, CES 5%, model E4) was 177 µg/g lipid. For the same compound, the “CED, Total protein” value (M, CES 5%, model E4) was 1080 µg/g lipid, the “CED, Triglycerides” value (M, CES 5%, model E4) was 12.5 µg/g lipid and the “CED-L, Chlolesterol” value (M, CES 5%, model E4) was 91.4 µg/g lipid. The “CED-L, Total protein” value (M, CES 5%, model E4) was 575 µg/g lipid, the “CED-L, Triglycerides” value (M, CES 5%, model E4) was 7.26 µg/g lipid and the “CED, Albumin” value (M, CES 10%, model E2) was 13200 µg/g lipid. For the same compound, the “CED, Alkaline phosphatase” value (M, CES 10%, model E2) was 4730 µg/g lipid, the “CED, Glucose” value (M, CES 10%, model E2) was 1780 µg/g lipid and the “CED-L, Albumin” value (M, CES 10%, model E2) was 9174 µg/g lipid. The “CED-L, Alkaline phosphatase” value (M, CES 10%, model E2) was 2861 µg/g lipid, the “CED-L, Glucose” value (M, CES 10%, model E2) was 1297 µg/g lipid and the “CED, Chlolesterol” value (M, CES 10%, model E4) was 365 µg/g lipid. The “CED, Total protein” value (M, CES 10%, model E4) was 2970 µg/g lipid, the “CED, Triglycerides” value (M, CES 10%, model E4) was 26.2 µg/g lipid and the “CED-L, Chlolesterol” value (M, CES 10%, model E4) was 189 µg/g lipid. For the same compound, the “CED-L, Total protein” value (M, CES 10%, model E4) was 1629 µg/g lipid, the “CED-L, Triglycerides” value (M, CES 10%, model E4) was 15.2 µg/g lipid and the Emax (F, model E2, controls vs high dose according to the fitted model, read-out: Maximum response, Glucose) was -12.2%. The Emax (F, model E2, controls vs high dose according to the fitted model, read-out: Maximum response, Potassium) was -7.07%, the Emax (F, model E4, controls vs high dose according to the fitted model, read-out: Maximum response, Alkaline phosphatase) was -25.7% and the Emax (F, model E4, controls vs high dose according to the fitted model, read-out: Maximum response, Chlolesterol) was 53.8%. It also gave an Emax (F, model E4, controls vs high dose according to the fitted model, read-out: Maximum response, Total Bilirubin) of -18.2%, an Emax (females, controls vs high dose, fitted model, read-out: Alkaline phosphatase, Maximum response) of -25.7% and an Emax (females, controls vs high dose, fitted model, read-out: Chlolesterol, Maximum response) of 54.1%. It also gave an Emax (females, controls vs high dose, fitted model, read-out: Glucose, Maximum response) of -12.1%, an Emax (females, controls vs high dose, fitted model, read-out: Potassium, Maximum response) of -7% and an Emax (females, controls vs high dose, fitted model, read-out: Total Bilirubin, Maximum response) of -17.9%. It also gave an Emax (males, controls vs high dose, fitted model, read-out: Albumin, Maximum response) of 5.5%, an Emax (males, controls vs high dose, fitted model, read-out: Alkaline phosphatase, Maximum response) of -14.9% and an Emax (males, controls vs high dose, fitted model, read-out: Chlolesterol, Maximum response) of 80.8%. It also gave an Emax (males, controls vs high dose, fitted model, read-out: Glucose, Maximum response) of -35.6%, an Emax (males, controls vs high dose, fitted model, read-out: Total protein, Maximum response) of 14.1% and an Emax (males, controls vs high dose, fitted model, read-out: Triglycerides, Maximum response) of -62.2%. The Emax (model E2, controls vs high dose according to the fitted model, read-out: Maximum response, Albumin) was 5.49%, the Emax (model E2, controls vs high dose according to the fitted model, read-out: Maximum response, Alkaline phosphatase) was -15.4% and the Emax (model E2, controls vs high dose according to the fitted model, read-out: Maximum response, Glucose) was -35.4%. The Emax (model E4, controls vs high dose according to the fitted model, read-out: Maximum response, Chlolesterol) was 81.7%, the Emax (model E4, controls vs high dose according to the fitted model, read-out: Maximum response, Total protein) was 14.2% and the Emax (model E4, controls vs high dose according to the fitted model, read-out: Maximum response, Triglycerides) was -62.5%. For the same compound, the “Cholesterol, Dose response” value [1] was “T”, the “Glucose, Dose response” value [1] was “T” and the “K, Dose response” value [1] was “T”. For the same compound, the “Total bilirubin, Dose response” value [1] was “T”, the Albumin (females, total dose 3 mg/kg bw) was 33.8 g/L and the Cholesterol (females, total dose 3 mg/kg bw) was 3.11 mmol/L. For the same compound, the Cl (females, total dose 3 mg/kg bw) was 97.1 mmol/L, the Creatinine (females, total dose 3 mg/kg bw) was 51.7 µmol/L and the Glucose (females, total dose 3 mg/kg bw) was 13.7 mmol/L. The K (females, total dose 3 mg/kg bw) was 5.59 mmol/L, the Na (females, total dose 3 mg/kg bw) was 142.1 mmol/L and the “Total Ca” value (females, total dose 3 mg/kg bw) was 3.40 mmol/L. For the same compound, the Total bilirubin (females, total dose 3 mg/kg bw) was 1.59 µmol/L, the Triglyserides (females, total dose 3 mg/kg bw) was 0.91 mmol/L and the Urea (females, total dose 3 mg/kg bw) was 9.9 mmol/L. For the same compound, the Albumin [2] was 33.9 g/L, the Cholesterol [2] was 3.35 mmol/L and the Cl [2] was 97.2 mmol/L. It also gave a Creatinine [2] of 53.8 µmol/L, a Glucose [2] of 14.4 mmol/L and a K [2] of 5.70 mmol/L. The Na [2] was 143.6 mmol/L, the “Total Ca” value [2] was 3.42 mmol/L and the Total bilirubin [2] was 1.66 µmol/L. For the same compound, the Triglyserides [2] was 0.85 mmol/L, the Urea [2] was 9.4 mmol/L and the Albumin [3] was 32.7 g/L. For the same compound, the Cholesterol [3] was 3.05 mmol/L, the Cl [3] was 97.3 mmol/L and the Creatinine [3] was 48.6 µmol/L. The Glucose [3] was 13.6 mmol/L, the K [3] was 5.55 mmol/L and the Na [3] was 142.7 mmol/L. The “Total Ca” value [3] was 3.46 mmol/L, the Total bilirubin [3] was 1.40 µmol/L and the Triglyserides [3] was 1.19 mmol/L. For the same compound, the Urea [3] was 9.5 mmol/L, the Albumin [4] was 33.1 g/L and the Cholesterol [4] was 3.54 mmol/L. The Cl [4] was 97.0 mmol/L, the Creatinine [4] was 51.3 µmol/L and the Glucose [4] was 13.8 mmol/L. For the same compound, the K [4] was 5.75 mmol/L, the Na [4] was 142.5 mmol/L and the “Total Ca” value [4] was 3.44 mmol/L. The Total bilirubin [4] was 1.56 µmol/L, the Triglyserides [4] was 0.89 mmol/L and the Urea [4] was 8.6 mmol/L. For the same compound, the Albumin [5] was 33.5 g/L, the Cholesterol [5] was 3.52 mmol/L and the Cl [5] was 96.8 mmol/L. The Creatinine [5] was 47.8 µmol/L, the Glucose [5] was 14.0 mmol/L and the K [5] was 5.54 mmol/L. The Na [5] was 142.6 mmol/L, the “Total Ca” value [5] was 3.56 mmol/L and the Total bilirubin [5] was 1.40 µmol/L. For the same compound, the Triglyserides [5] was 1.12 mmol/L, the Urea [5] was 10.1 mmol/L and the Albumin [6] was 33.0 g/L. The Cholesterol [6] was 4.16 mmol/L, the Cl [6] was 97.2 mmol/L and the Creatinine [6] was 51.9 µmol/L. For the same compound, the Glucose [6] was 12.6 mmol/L, the K [6] was 5.43 mmol/L and the Na [6] was 142.7 mmol/L. The “Total Ca” value [6] was 3.40 mmol/L, the Total bilirubin [6] was 1.43 µmol/L and the Triglyserides [6] was 0.89 mmol/L. For the same compound, the Urea [6] was 9.3 mmol/L, the Albumin [7] was 33.3 g/L and the Cholesterol [7] was 4.94 mmol/L. For the same compound, the Cl [7] was 97.7 mmol/L.

From publication PMC4138103 (PLoS ONE, 2014)
